Data on 84 molecules can be found in ChEMBL document CHEMBL5390237, “Discovery of Selective Histone Deacetylase 1 and 2 Inhibitors: Screening of a Focused Library Constructed by Click Chemistry, Kinetic Binding Analysis, and Biological Evaluation” (J Med Chem, 2023).

Structures are written as SMILES.

In this test the target is Histone deacetylase 2 (Homo sapiens, UniProt Q92769). Kind of test: Inhibition of full-length recombinant human C-terminal GST tagged HDAC2 expressed in Sf9 insect cells using aminoluciferin peptide substrate at 100 nM preincubated for 3 hrs followed by substrate addition and measured after 30 mins by HDAC-Glo I/II chemiluminescence assay. Particulars: time 3.5 hrs.
Chain of Histone deacetylase 2 (Q92769 whole entry): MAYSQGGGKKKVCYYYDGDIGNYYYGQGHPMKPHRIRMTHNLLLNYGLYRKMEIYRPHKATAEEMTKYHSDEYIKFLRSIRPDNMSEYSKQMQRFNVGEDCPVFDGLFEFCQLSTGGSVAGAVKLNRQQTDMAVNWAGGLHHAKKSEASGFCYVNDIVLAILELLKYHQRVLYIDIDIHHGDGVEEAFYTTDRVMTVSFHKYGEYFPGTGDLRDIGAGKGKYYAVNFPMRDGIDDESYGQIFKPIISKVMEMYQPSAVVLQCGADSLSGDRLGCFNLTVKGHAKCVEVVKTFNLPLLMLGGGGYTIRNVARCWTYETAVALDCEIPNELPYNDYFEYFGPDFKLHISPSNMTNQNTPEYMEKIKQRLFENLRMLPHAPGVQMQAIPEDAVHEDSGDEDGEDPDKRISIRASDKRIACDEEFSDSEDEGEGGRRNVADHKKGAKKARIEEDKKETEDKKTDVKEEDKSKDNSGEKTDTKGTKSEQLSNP
For orientation: inhibition means how much of the control response was suppressed. As for `Nc1ccc(-c2cccs2)cc1NC(=O)c1cn(/C=C/c2ccccc2)nn1`, the inhibition is 12%.
Next, `Nc1ccc(-c2cccs2)cc1NC(=O)c1cccc(-c2cn(CCc3ccccn3)nn2)c1`: 33%.
Next, `Nc1ccc(-c2cccs2)cc1NC(=O)c1ccc(-c2cn(-c3ccccc3-c3ccccc3)nn2)cc1`: 0%; `Nc1ccc(-c2cccs2)cc1NC(=O)c1ccc(-c2cn(CS(=O)(=O)c3ccccc3)nn2)s1`: 44%.
With `Nc1ccc(-c2cccs2)cc1NC(=O)c1cccc(-c2cn(-c3ccc(O)cc3)nn2)c1` the figure was 13%.
As to `Nc1ccc(-c2ccsc2)cc1NC(=O)c1cn(CCC23CC4CC(CC(C4)C2)C3)nn1`, the inhibition was found to be 0%.
Take `CCc1ccc(Cn2cc(CCC(=O)Nc3cc(-c4ccccc4)ccc3N)nn2)cc1`: the inhibition came out at 1%.
With `Nc1ccc(-c2cccs2)cc1NC(=O)c1cn(CCc2ccccc2)nn1` the figure was 9%; with `Nc1ccc(-c2cccs2)cc1NC(=O)CCc1cn(Cc2ccc(C(=O)O)cc2)nn1`, 31%; with `Nc1ccc(-c2ccc(F)cc2)cc1NC(=O)c1cn(CCc2ccc(C(F)(F)F)cc2)nn1`, 0%.
With `Nc1ccc(-c2cccs2)cc1NC(=O)c1cn(-c2ccccc2-c2ccccc2)nn1` the figure was 0%.
Next, `Nc1ccc(-c2cccs2)cc1NC(=O)c1ccc(-c2cn(CC3CCCCC3)nn2)s1`: 0%.
As to `Nc1ccc(-c2ccsc2)cc1NC(=O)CCc1cn(-c2ccc(I)cc2)nn1`, the inhibition is 0%.
With `CCc1ccc(Cn2cc(CCC(=O)Nc3cc(-c4cccs4)ccc3N)nn2)cc1` the figure was 10%; with `Nc1ccc(-c2cccs2)cc1NC(=O)CCc1cn(/C=C/c2ccccc2)nn1`, 24%; with `Cc1ccc(-n2cc(-c3ccc(C(=O)Nc4cc(-c5cccs5)ccc4N)s3)nn2)cc1C`, 0%.
With `Nc1ccc(-c2cccs2)cc1NC(=O)c1cccc(-c2cn(CC(=O)c3ccccc3)nn2)c1` the figure was 7%; with `Nc1ccc(-c2ccccc2)cc1NC(=O)CCc1cn(CCC23CC4CC(CC(C4)C2)C3)nn1`, 0%.
`CCc1ccc(Cn2cc(CCC(=O)Nc3cc(-c4ccc(F)cc4)ccc3N)nn2)cc1`: the inhibition came out at 2%.
With `Nc1ccc(-c2cccnc2)cc1NC(=O)CCc1cn(-c2ccc(I)cc2)nn1`, the inhibition came out at 1%.
Consider `COc1ccc(CCn2cc(CCC(=O)Nc3cc(-c4ccccc4)ccc3N)nn2)cc1`, for which the inhibition stood at 17%.
As to `Nc1ccc(-c2ccccc2)cc1NC(=O)CCc1cn(CCc2ccccc2C(F)(F)F)nn1`, the inhibition stood at 0%.
`Nc1ccc(-c2ccsc2)cc1NC(=O)c1cn(Cc2ccc(OC(F)(F)F)cc2)nn1`: the inhibition amounted to 0%.
With `Nc1ccc(-c2cccs2)cc1NC(=O)c1cccc(-c2cn(CCc3cccc(Cl)c3)nn2)c1` the figure was 0%; with `Nc1ccc(-c2cccs2)cc1NC(=O)c1ccc(-c2cn(CCCCCc3ccccc3)nn2)s1`, 1%; with `Nc1ccc(-c2ccccc2)cc1NC(=O)CCc1cn(CCc2ccccc2Cl)nn1`, 0%.
Regarding `Nc1ccc(-c2ccccc2)cc1NC(=O)c1cn(CCc2ccccc2)nn1`, the inhibition is 12%.
Next, `Nc1ccc(-c2cccs2)cc1NC(=O)c1ccc(-c2cn(CCc3c[nH]c4ccccc34)nn2)cc1`: 19%; `Nc1ccc(-c2ccccc2)cc1NC(=O)c1cn(Cc2cccc3ccccc23)nn1`: 2%.
Turning to `Nc1ccc(-c2ccccc2)cc1NC(=O)c1cn(CCc2ccccn2)nn1`, the inhibition came to 0%.
Next, `Nc1ccc(-c2ccc(F)cc2)cc1NC(=O)c1cn(CCC2CCCC2)nn1`: 0%; `Nc1ccc(-c2cccs2)cc1NC(=O)c1ccc(-c2cn(CCC3CCCC3)nn2)s1`: 0%.
`Nc1ccc(-c2ccsc2)cc1NC(=O)c1cn(CCc2ccsc2)nn1`: the inhibition was determined as 0%.
Turning to `Nc1ccc(-c2cccs2)cc1NC(=O)c1ccc(-c2cn(CCCCCCCC(=O)O)nn2)cc1`, the inhibition amounted to 0%.
Turning to `Nc1ccc(-c2ccsc2)cc1NC(=O)CCc1cn(CCC2CCCC2)nn1`, the inhibition is 0%.
For `Nc1ccc(-c2cccs2)cc1NC(=O)c1ccc(-c2cn(CCc3ccc(Cl)cc3)nn2)cc1`, the inhibition turned out to be 18%.
Next, `Nc1ccc(-c2cccs2)cc1NC(=O)c1cccc(-c2cn(CCc3c[nH]c4ccccc34)nn2)c1`: 6%; `Cc1ccc(-n2cc(C(=O)Nc3cc(-c4cccs4)ccc3N)nn2)cc1C`: 0%; `COc1ccc(Cn2cc(-c3cccc(C(=O)Nc4cc(-c5cccs5)ccc4N)c3)nn2)cc1`: 0%.
With `Nc1ccc(-c2cccs2)cc1NC(=O)c1ccc(-c2cn(CCCCC(=O)O)nn2)cc1` the figure was 36%.
With `Nc1ccc(-c2cccs2)cc1NC(=O)c1cn(CCc2ccc(C(=O)O)cc2)nn1` the figure was 16%; with `Nc1ccc(-c2cccs2)cc1NC(=O)c1cccc(-c2cn(CCc3cccc(C(F)(F)F)c3)nn2)c1`, 0%.
For the molecule `CCc1ccc(Cn2cc(C(=O)Nc3cc(-c4ccc(F)cc4)ccc3N)nn2)cc1`, the inhibition came out at 0%.
With `Nc1ccc(-c2cccnc2)cc1NC(=O)CCc1cn(CC2CCCCC2)nn1` the figure was 0%.
Next, `Nc1ccc(-c2ccccc2)cc1NC(=O)c1cn(Cc2nc3ccccc3[nH]2)nn1`: 11%.
Consider `Nc1ccc(-c2cccnc2)cc1NC(=O)CCc1cn(CCC23CC4CC(CC(C4)C2)C3)nn1`, for which the inhibition worked out at 5%.
Next, `Nc1ccc(-c2ccc(F)cc2)cc1NC(=O)CCc1cn(CC23CC4CC(CC(C4)C2)C3)nn1`: 0%.
Regarding `Nc1ccc(-c2ccccc2)cc1NC(=O)CCc1cn(CCc2ccc(C(=O)O)cc2)nn1`, the inhibition amounted to 33%.
With `Nc1ccc(-c2ccccc2)cc1NC(=O)CCc1cn(CC2CCCCC2)nn1` the figure was 0%; with `COc1ccccc1CCn1cc(CCC(=O)Nc2cc(-c3ccccc3)ccc2N)nn1`, 10%; with `Cc1csc(CCn2cc(-c3ccc(C(=O)Nc4cc(-c5cccs5)ccc4N)cc3)nn2)n1`, 68%.
With `Nc1ccc(-c2ccc(F)cc2)cc1NC(=O)CCc1cn(Cc2nc3ccccc3[nH]2)nn1` the figure was 32%; with `COc1ccc(CCn2cc(C(=O)Nc3cc(-c4ccc(F)cc4)ccc3N)nn2)cc1`, 16%.
Next, `COc1ccc(CCn2cc(C(=O)Nc3cc(-c4ccsc4)ccc3N)nn2)cc1`: 6%.
On to `Nc1ccc(-c2ccsc2)cc1NC(=O)CCc1cn(Cc2ccc(C(=O)O)cc2)nn1`, for which the inhibition is 31%.
Next, `Cc1csc(CCn2cc(C(=O)Nc3cc(-c4ccccc4)ccc3N)nn2)n1`: 0%; `Nc1ccc(-c2cccs2)cc1NC(=O)c1cccc(-c2cn(CCC34CC5CC(CC(C5)C3)C4)nn2)c1`: 9%; `Nc1ccc(-c2cccs2)cc1NC(=O)c1ccc(-c2cn(CCc3ccc(F)cc3)nn2)cc1`: 14%.
Next, `Cc1ccccc1CCn1cc(-c2ccc(C(=O)Nc3cc(-c4cccs4)ccc3N)s2)nn1`: 14%; `Nc1ccc(-c2ccsc2)cc1NC(=O)CCc1cn(Cc2ccc3ccccc3c2)nn1`: 16%.
Next, `COc1ccc(CCn2cc(CCC(=O)Nc3cc(-c4ccc(F)cc4)ccc3N)nn2)cc1`: 34%.
As to `Nc1ccc(-c2ccccc2)cc1NC(=O)CCc1cn(CCc2ccc(C(F)(F)F)cc2)nn1`, the inhibition came to 0%.
With `Nc1ccc(-c2cccs2)cc1NC(=O)c1cccc(-c2cn(Cc3cccc(-c4ccccc4)c3)nn2)c1` the figure was 0%; with `COc1ccc(Cn2cc(-c3ccc(C(=O)Nc4cc(-c5cccs5)ccc4N)s3)nn2)cc1`, 27%.
Next, `Nc1ccc(-c2ccccc2)cc1NC(=O)CCc1cn(CCCCC(=O)O)nn1`: 0%; `Nc1ccc(-c2ccsc2)cc1NC(=O)CCc1cn(CCCc2ccccc2)nn1`: 19%; `Nc1ccc(-c2ccsc2)cc1NC(=O)CCc1cn(CCc2ccc3ccccc3n2)nn1`: 20%.
With `Nc1ccc(-c2cccs2)cc1NC(=O)c1cn(CCc2ccccc2Cl)nn1` the figure was 3%; with `Nc1ccc(-c2cccs2)cc1NC(=O)CCc1cn(Cc2cccc3ccccc23)nn1`, 9%; with `Nc1ccc(-c2cccs2)cc1NC(=O)c1ccc(-c2cn(CCN3CCc4ccccc4C3)nn2)cc1`, 0%.
As for `Nc1ccc(-c2cccs2)cc1NC(=O)c1ccc(-c2cn(CCc3c[nH]c4ccccc34)nn2)s1`, the inhibition came out at 38%.
With `Nc1ccc(-c2ccsc2)cc1NC(=O)CCc1cn(CCN2CCOCC2)nn1` the figure was 0%; with `Nc1ccc(-c2ccsc2)cc1NC(=O)c1cn(CCc2ccc(C(F)(F)F)cc2)nn1`, 0%; with `Nc1ccc(-c2ccc(F)cc2)cc1NC(=O)c1cn(Cc2ccc3ccccc3n2)nn1`, 27%.
With `Nc1ccc(-c2ccsc2)cc1NC(=O)CCc1cn(CCc2ccccn2)nn1` the figure was 12%; with `Nc1ccc(-c2ccc(F)cc2)cc1NC(=O)c1cn(-c2ccc(Br)cc2)nn1`, 10%.
Next, `Nc1ccc(-c2cccnc2)cc1NC(=O)CCc1cn(CCc2ccc(C(F)(F)F)cc2)nn1`: 0%; `Nc1ccc(-c2ccccc2)cc1NC(=O)c1cn(CCN2CCOCC2)nn1`: 0%.
Take `Nc1ccc(-c2ccc(F)cc2)cc1NC(=O)CCc1cn(CCc2ccccn2)nn1`: the inhibition worked out at 18%.
Next, `Nc1ccc(-c2ccc(F)cc2)cc1NC(=O)CCc1cn(CCC2CCCC2)nn1`: 0%; `Nc1ccc(-c2ccsc2)cc1NC(=O)CCc1cn(CCc2ccc(F)cc2)nn1`: 21%.
With `Nc1ccc(-c2cccs2)cc1NC(=O)c1cn(CCCCC(=O)O)nn1` the figure was 3%; with `Nc1ccc(-c2cccs2)cc1NC(=O)c1cn(CCCCCCCC(=O)O)nn1`, 2%.
With `Nc1ccc(-c2ccsc2)cc1NC(=O)c1cn(CCc2ccccc2C(F)(F)F)nn1` the figure was 0%.
